Test system: Plasmodium berghei
Assay: Luciferase/luciferin-expressing antifolate-resistant parasites were used to infect a culture of HepG2 cells that were pre-incubated with compounds. Infected hepatocytes emit light due to the luciferase reaction. Assay results are presented as the percent inhibition of light emission compared to control. […]
Type: functional
Settings: sporozoite; for IC90: read-out: LUCIFERASE INFECTION ASSAY - IC90
[1] = read-out: LUCIFERASE INFECTION ASSAY - IC50

| SMILES | IC90 [µM] | other results |
| --- | --- | --- |
| COc1cccc(/C=c2\s/c(=C\C(=O)C(C)(C)C)n(C)c2=O)c1OC(C)C | > 10 | IC50 (HEPG2TOX_HILL_SLOPE 1.82, HEPG2TOX_R_SQUARED 0.577, PBLUC_HILL_SLOPE 1.88, PBLUC_R_SQUARED 0.501, read-out: LUCIFERASE INFECTION ASSAY - IC50): 8.5 µM |
| CCN(CC)CCn1c(NC(=O)c2cccc3c[nH]nc23)nc2ccccc21 | > 10 | IC50 (HEPG2TOX_HILL_SLOPE 0.322, HEPG2TOX_R_SQUARED 0.707, PBLUC_HILL_SLOPE 3.59, PBLUC_R_SQUARED 0.259, read-out: LUCIFERASE INFECTION ASSAY - IC50): 6.09 µM |
| Cc1cc(/C=C(\C#N)c2nnc(N3CCOCC3)n2-c2ccccc2)c(C)n1-c1cccc(C(F)(F)F)c1 | > 10 | IC50 (HEPG2TOX_HILL_SLOPE 0.204, HEPG2TOX_R_SQUARED 0.0193, PBLUC_HILL_SLOPE 1.7, PBLUC_R_SQUARED 0.432, read-out: LUCIFERASE INFECTION ASSAY - IC50): > 10 µM |
| CC(C)Nc1nc(-c2ccccc2CO)c2sc(-c3ccccc3)cc2n1 | 0.949 | IC50 (HEPG2TOX_HILL_SLOPE 1.93, HEPG2TOX_R_SQUARED 0.921, PBLUC_HILL_SLOPE 16.9, PBLUC_R_SQUARED 0.634, read-out: LUCIFERASE INFECTION ASSAY - IC50): 0.833 µM |
| Cn1nc(-c2ccc(/C=N/NC(=O)c3ccc(Cl)cc3)s2)cc1C(F)(F)F | 3.23 | IC50 (HEPG2TOX_HILL_SLOPE 12, HEPG2TOX_R_SQUARED 0.148, PBLUC_HILL_SLOPE 12.7, PBLUC_R_SQUARED 0.63, read-out: LUCIFERASE INFECTION ASSAY - IC50): 2.72 µM |
| COc1ccc(CCC(=O)N(c2nc(-c3ccc(C)cc3)cs2)c2cc(C)ccc2C)cc1OC | 4.21 | IC50 (HEPG2TOX_HILL_SLOPE 2.48, HEPG2TOX_R_SQUARED 0.955, PBLUC_HILL_SLOPE 14.1, PBLUC_R_SQUARED 0.228, read-out: LUCIFERASE INFECTION ASSAY - IC50): 3.6 µM |
| CC(C)(C)c1cc2nc(C(F)(F)F)cc(SCCOC(=O)Nc3cccc(Cl)c3)n2n1 | > 6.98 | IC50 (HEPG2TOX_HILL_SLOPE 1.03, HEPG2TOX_R_SQUARED 0.0682, read-out: LUCIFERASE INFECTION ASSAY - IC50): > 6.98 µM |
| O=C(O/N=C(\Nc1ccc(OC(F)(F)F)cc1)c1c(Cl)cccc1Cl)c1ccccc1C(F)(F)F | > 6.14 | IC50 (PBLUC_HILL_SLOPE 1.69, PBLUC_R_SQUARED 0.564, read-out: LUCIFERASE INFECTION ASSAY - IC50): > 6.14 µM |
| Cc1cc(C(=O)NCC#Cc2cccc(C(F)(F)F)c2)on1 | 8.21 | IC50 (PBLUC_HILL_SLOPE 5.05, PBLUC_R_SQUARED 0.342, read-out: LUCIFERASE INFECTION ASSAY - IC50): 5.32 µM |
| O=C(COC(=O)c1cn(-c2ccccc2)nc1-c1ccccc1)Nc1ccc(Cl)c(S(=O)(=O)N2CCOCC2)c1 | > 10 | IC50 (PBLUC_HILL_SLOPE 2.11, PBLUC_R_SQUARED 0.445, read-out: LUCIFERASE INFECTION ASSAY - IC50): 5.37 µM |
| CSc1sc(C#N)c2c1/C(=N/OC(=O)c1ccc(Cl)cc1)CCC2 | > 8.76 | IC50 (FFLUC_HILL_SLOPE 4.66, FFLUC_R_SQUARED 0.795, read-out: LUCIFERASE INFECTION ASSAY - IC50): > 8.76 µM |
| Cc1cccc(Nc2nc(S(=O)(=O)c3ccc(Cl)cc3)c(Cl)s2)c1 | > 10 | IC50 (HEPG2TOX_HILL_SLOPE 2.2, HEPG2TOX_R_SQUARED 0.986, PBLUC_HILL_SLOPE 2.95, PBLUC_R_SQUARED 0.805, read-out: LUCIFERASE INFECTION ASSAY - IC50): 5.17 µM |
| COc1ccc(CCC2CCN(C(=O)c3cc(S(N)(=O)=O)c(Cl)cc3Cl)CC2)cc1 | > 10 | IC50 (PBLUC_HILL_SLOPE 15.3, 12.1, PBLUC_R_SQUARED 0.180, 0.0239, read-out: LUCIFERASE INFECTION ASSAY - IC50): 9.53 µM |
| Fc1ccc(N2CCN(c3nc(CN4CCOCC4)nc4scc(-c5ccccc5)c34)CC2)cc1 | > 10 | IC50 (HEPG2TOX_HILL_SLOPE 0.184, HEPG2TOX_R_SQUARED 0.0625, read-out: LUCIFERASE INFECTION ASSAY - IC50): > 10 µM |
| N#C/C(=N\Nc1ccc(Cl)cc1)C(=O)c1ccsc1 | > 11.4 | IC50 [1]: > 11.4 µM |
| O=C(Cc1cccc2ccccc12)NCC(=O)Nc1nc(-c2ccccc2)cs1 | > 10 | IC50 [1]: > 10 µM |
| CC(C)n1cc(-c2nc(C(=O)NNC(=O)c3ccccc3Cl)cs2)c(=O)n(Cc2ccccc2)c1=O | > 6.3 | IC50 [1]: > 6.3 µM |
| Oc1cccc(-c2cnc3cnc(-c4ccc(CNc5ccccc5)cc4)cn23)c1 | 2.92 | IC50 (FFLUC_HILL_SLOPE 1.01, FFLUC_R_SQUARED 0.213, PBLUC_HILL_SLOPE 39.2, PBLUC_R_SQUARED 0.71, read-out: LUCIFERASE INFECTION ASSAY - IC50): 2.76 µM |
| CN1CCN(c2ccc(-c3cn4c(-c5ccc6ncccc6c5)cnc4cn3)cn2)CC1 | 3.03 | IC50 (HEPG2TOX_HILL_SLOPE 4.41, HEPG2TOX_R_SQUARED 0.745, PBLUC_HILL_SLOPE 17.7, PBLUC_R_SQUARED 0.338, read-out: LUCIFERASE INFECTION ASSAY - IC50): 2.68 µM |
| O=C(Nc1ccc(Oc2ccccc2)cc1)c1csc(C(O)c2cccc(OC(F)(F)F)c2)n1 (stereo not drawn) | 5.15 | IC50 (HEPG2TOX_HILL_SLOPE 1.57, HEPG2TOX_R_SQUARED 0.929, PBLUC_HILL_SLOPE 3.6, PBLUC_R_SQUARED 0.22, read-out: LUCIFERASE INFECTION ASSAY - IC50): 2.8 µM |

| SMILES | IC90 [µM] | other results |
| --- | --- | --- |
| Cc1onc(-c2c(Cl)cccc2Cl)c1NC(=O)Nc1ccc(Oc2ccc(C(C)(C)C)cc2)nc1 | > 6.45 | IC50 (FFLUC_HILL_SLOPE 11.2, FFLUC_R_SQUARED 0.206, PBLUC_HILL_SLOPE 0.638, PBLUC_R_SQUARED 0.443, read-out: LUCIFERASE INFECTION ASSAY - IC50): 2.71 µM |
| COC(=O)c1c(NC(=O)c2cccnc2)c2cc(NCC3CCCCC3)cnc2n1Cc1ccccc1 | > 6.63 | IC50 (HEPG2TOX_HILL_SLOPE 17.8, HEPG2TOX_R_SQUARED 0.594, PBLUC_HILL_SLOPE 8.22, PBLUC_R_SQUARED 0.247, read-out: LUCIFERASE INFECTION ASSAY - IC50): 5.43 µM |
| Cc1ccc(-c2c(C)sc3[nH]c(CN(Cc4nc(=O)c5c(-c6ccc(C)cc6)c(C)sc5[nH]4)Cc4ccccc4CN4CCCC4)nc(=O)c23)cc1 | > 10 | IC50 [1]: > 10 µM |
| Nc1ccc(NC2=C(Cl)C(=O)c3ccccc3C2=O)cc1 | 5.78 | IC50 (FFLUC_HILL_SLOPE 16.7, FFLUC_R_SQUARED 0.273, HEPG2TOX_HILL_SLOPE 2.85, HEPG2TOX_R_SQUARED 0.992, PBLUC_HILL_SLOPE 8.6, PBLUC_R_SQUARED 0.505, read-out: LUCIFERASE INFECTION ASSAY - IC50): 4.48 µM |
| CCn1c(-c2ccccc2)c(C(=O)CSc2nnc(N)[nH]2)c2ccccc21 | > 10 | IC50 (FFLUC_HILL_SLOPE 0.751, FFLUC_R_SQUARED 0.0256, read-out: LUCIFERASE INFECTION ASSAY - IC50): > 10 µM |
| CCCCNC(=O)c1c(NC(=O)c2cc(F)ccc2C)nc2ccccn12 | > 8.96 | IC50 (PBLUC_HILL_SLOPE 3.71, PBLUC_R_SQUARED 0.517, read-out: LUCIFERASE INFECTION ASSAY - IC50): 6.93 µM |
| CC(C)(C)NC(=O)CNC(=O)c1cc(-c2ccccc2)nc2c1cnn2Cc1ccccc1 | > 10 | IC50 (PBLUC_HILL_SLOPE 16.4, PBLUC_R_SQUARED 0.327, read-out: LUCIFERASE INFECTION ASSAY - IC50): 9.02 µM |
| Cc1cc(C)cc(N(C(=O)Cc2coc3cc(C)ccc23)c2nc(-c3ccc(F)cc3)cs2)c1 | > 10 | IC50 [1]: > 10 µM |
| N#Cc1c(CCCNC(=O)/C=C/c2ccc(Cl)c(C(F)(F)F)c2)nn(-c2ccc(F)cc2)c1N | > 10 | IC50 [1]: > 10 µM |
| COc1ccc(OCCCC(=O)N(c2nc3ccccc3s2)c2cc(C(F)(F)F)ccc2Cl)cc1 | > 10 | IC50 [1]: > 10 µM |
| C=CCn1c(SCc2cc([N+](=O)[O-])cc3c2OCOC3)nc2cc(C(=O)O)ccc2c1=O | 6.97 | IC50 [1]: 1.82 µM |
| O=C(Cc1csc(-c2ncccn2)n1)Oc1ccc(N2CCCC2=O)cc1 | > 10 | IC50 [1]: > 10 µM |
| COc1ccc(-c2cc(-c3ccc(O)cc3)cnc2N)cn1 | 10.6 | IC50 (PBLUC_HILL_SLOPE 26.5, PBLUC_R_SQUARED 0.457, read-out: LUCIFERASE INFECTION ASSAY - IC50): 9.73 µM |
| COc1ccc(CN2C(=O)c3ccccc3C(/C=N\OCc3ccc(F)cc3)C2=O)cc1 (stereo not drawn) | > 7.63 | IC50 (FFLUC_HILL_SLOPE 3.53, FFLUC_R_SQUARED 0.589, read-out: LUCIFERASE INFECTION ASSAY - IC50): > 7.63 µM |
| COc1ccc(NC(=O)c2ccc3c(c2)C(=O)N(c2ccccc2Cl)C3=O)cn1 | > 10 | IC50 [1]: > 10 µM |
| CCCn1nc(C(=O)Nc2cccc(-c3nc4ccccc4[nH]3)c2)c2ccccc2c1=O | 4.7 | IC50 (PBLUC_HILL_SLOPE 9.6, PBLUC_R_SQUARED 0.205, read-out: LUCIFERASE INFECTION ASSAY - IC50): 3.74 µM |
| Cc1ccc(C)c(NC(=O)CN(C)C(=O)CN2CCN(c3ccccc3)CC2)c1 | > 10 | IC50 [1]: > 10 µM |
| Cc1occc1C(=O)NNC(=O)c1csc(-c2ccc(C(C)C)cc2)n1 | > 10 | IC50 (PBLUC_HILL_SLOPE 2.06, PBLUC_R_SQUARED 0.34, read-out: LUCIFERASE INFECTION ASSAY - IC50): 8.1 µM |
| c1ccc2cc(OCCNc3ncnc4sccc34)ccc2c1 | 3.89 | IC50 (HEPG2TOX_HILL_SLOPE 0.735, HEPG2TOX_R_SQUARED 0.741, PBLUC_HILL_SLOPE 1.1, PBLUC_R_SQUARED 0.73, read-out: LUCIFERASE INFECTION ASSAY - IC50): 0.524 µM |

Reference: ChEMBL document CHEMBL4483862, “Open-source discovery of chemical leads for next-generation chemoprotective antimalarials” (2018)
